Laboratory results reported in the supplement of paper PMC10307832.

Assays:
Assay in all cases: relative viability (nuclei count vs DMSO), 5 days (fraction); higher = more cells survive
Bexarotene + Alpelisib = compound: C=C(c1ccc(C(=O)O)cc1)c1cc2c(cc1C)C(C)(C)CCC2(C)C [Bexarotene] + Cc1nc(NC(=O)N2CCC[C@H]2C(N)=O)sc1-c1ccnc(C(C)(C)C(F)(F)F)c1 [Alpelisib] (partner 2 µM)
Summary of the method: (§1)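 After 5 days of treatment, lung cancer cells in 1536-well plates were fixed and stained in a single step (final 0.05% Triton X-100, 1% formaldehyde, 1 ug/ml Hoechst) and their nuclei counted on 4× images. Treatment had been applied by pin tool the day after seeding as one drug alone or as a fixed anchor-drug dose with five library-drug doses (not always all listed) in √10 steps. Relative viability is the nuclei count of treated wells divided by that of vehicle wells, and values are medians of duplicate plates.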

Bexarotene + Lapatinib = compound: C=C(c1ccc(C(=O)O)cc1)c1cc2c(cc1C)C(C)(C)CCC2(C)C [Bexarotene] + CS(=O)(=O)CCNCc1ccc(-c2ccc3ncnc(Nc4ccc(OCc5cccc(F)c5)c(Cl)c4)c3c2)o1 [Lapatinib] (partner 2 µM)
Summary of the method: as §1

Bexarotene + Linsitinib = compound: C=C(c1ccc(C(=O)O)cc1)c1cc2c(cc1C)C(C)(C)CCC2(C)C [Bexarotene] + C[C@]1(O)C[C@@H](c2nc(-c3ccc4ccc(-c5ccccc5)nc4c3)c3c(N)nccn32)C1 [Linsitinib] (partner 1 µM)
Summary of the method: as §1

Bexarotene + OSI-027 = compound: C=C(c1ccc(C(=O)O)cc1)c1cc2c(cc1C)C(C)(C)CCC2(C)C [Bexarotene] + COc1cccc2cc(-c3nc([C@H]4CC[C@H](C(=O)O)CC4)n4ncnc(N)c34)[nH]c12 [OSI-027] (partner 0.5 µM)
Summary of the method: as §1

| Cell Line | relative viability (Bexarotene + Alpelisib; first compound 0.08 µM) | relative viability (Bexarotene + Alpelisib; first compound 0.253 µM) | relative viability (Bexarotene + Alpelisib; first compound 0.8 µM) | relative viability (Bexarotene + Alpelisib; first compound 2.53 µM) | relative viability (Bexarotene + Alpelisib; first compound 8 µM) | relative viability (Bexarotene + Lapatinib; first compound 0.08 µM) | relative viability (Bexarotene + Lapatinib; first compound 0.253 µM) | relative viability (Bexarotene + Lapatinib; first compound 0.8 µM) | relative viability (Bexarotene + Lapatinib; first compound 2.53 µM) | relative viability (Bexarotene + Lapatinib; first compound 8 µM) | relative viability (Bexarotene + Linsitinib; first compound 0.08 µM) | relative viability (Bexarotene + Linsitinib; first compound 0.253 µM) | relative viability (Bexarotene + Linsitinib; first compound 0.8 µM) | relative viability (Bexarotene + Linsitinib; first compound 2.53 µM) | relative viability (Bexarotene + Linsitinib; first compound 8 µM) | relative viability (Bexarotene + OSI-027; first compound 0.08 µM) | relative viability (Bexarotene + OSI-027; first compound 0.253 µM) | relative viability (Bexarotene + OSI-027; first compound 0.8 µM) | relative viability (Bexarotene + OSI-027; first compound 2.53 µM) | relative viability (Bexarotene + OSI-027; first compound 8 µM) |
| --- | --- | --- | --- | --- | --- | --- | --- | --- | --- | --- | --- | --- | --- | --- | --- | --- | --- | --- | --- | --- |
| 201T | 1.02 | 0.991 | 0.941 | 0.916 | 0.909 | 1.01 | 0.945 | 1.03 | 1.02 | 0.997 | 0.952 | 1.02 | 0.874 | 0.951 | 0.843 | 0.852 | 0.445 | 0.757 | 0.639 | 0.474 |
| A549 | 0.992 | 0.826 | 0.836 | 0.671 | 0.686 | 0.94 | 1.09 | 0.972 | 0.925 | 0.798 | 0.543 | 0.539 | 0.586 | 0.579 | 0.451 |  |  |  |  |  |
| A-427 | 1.08 | 1.02 | 0.89 | 0.89 | 0.926 | 1.03 | 0.997 | 0.929 | 0.997 | 1.04 | 1.03 | 0.833 | 1.04 | 1.05 | 0.993 | 0.448 | 0.462 | 0.455 | 0.449 | 0.415 |
| ABC-1 | 0.714 | 0.892 | 0.949 | 0.953 | 0.87 | 0.914 | 1.38 | 1.14 | 1.16 | 1.09 | 0.74 | 0.77 | 0.741 | 0.683 | 0.654 | 0.466 | 0.582 | 0.565 | 0.362 | 0.449 |
| BEN | 1.03 | 0.962 | 0.898 | 0.836 | 0.893 | 0.869 | 0.51 | 0.623 | 0.513 | 0.66 | 1.04 | 0.883 | 0.847 | 0.76 | 0.742 | 0.294 | 0.309 | 0.292 | 0.266 | 0.254 |
| CAL-12T | 1.29 | 1.3 | 1.33 | 1.17 | 0.94 | 0.632 |  | 0.638 |  | 0.543 | 0.682 | 0.894 | 0.727 | 0.707 | 0.656 | 0.523 | 0.416 | 0.49 | 0.439 | 0.441 |
| COR-L23 | 0.872 | 0.768 | 0.555 | 0.685 | 0.757 | 1.24 | 0.921 | 0.976 | 0.976 | 0.879 | 0.936 | 0.984 | 0.641 | 0.737 | 0.762 | 0.807 | 0.883 | 0.579 | 0.679 | 0.715 |
| COR-L 105 | 0.928 | 0.977 | 1.04 | 1.14 | 0.916 | 0.404 | 0.33 | 0.322 | 0.378 | 0.345 | 0.942 | 1.29 | 1.19 | 1.25 | 0.747 | 0.765 | 0.677 | 0.818 | 0.8 | 0.613 |
| Calu-6 | 1.12 | 0.917 | 0.934 | 0.958 | 1.05 | 0.929 | 1.03 | 0.987 | 0.963 | 1.14 | 1.02 | 0.886 | 0.729 | 0.91 | 0.954 |  |  |  |  |  |
| ChaGo-K-1 |  |  |  |  |  |  |  |  |  |  |  |  |  |  |  | 0.651 | 0.676 | 0.715 | 0.545 | 0.611 |
| EBC-1 | 1.22 | 0.989 | 0.756 | 0.89 | 0.868 | 0.231 | 0.232 | 0.22 | 0.192 | 0.209 | 0.954 | 0.89 | 0.783 | 0.929 | 1.06 |  |  |  |  |  |
| EKVX | 0.889 | 0.855 | 0.781 | 0.849 | 0.76 | 0.202 | 0.186 | 0.227 | 0.204 | 0.19 | 0.971 | 1.04 | 0.922 | 0.996 | 0.937 | 0.706 | 0.661 | 0.698 | 0.63 | 0.648 |
| EMC-BAC-2 | 0.748 | 0.735 | 0.705 | 0.73 | 0.719 | 0.923 | 0.884 | 0.812 | 0.841 | 0.887 | 0.873 | 0.813 | 0.75 | 0.804 | 0.811 | 0.416 | 0.42 | 0.385 | 0.367 | 0.419 |
| EPLC-272H | 0.9 | 0.97 | 0.884 | 0.901 | 0.911 | 0.982 | 0.825 | 0.898 | 0.746 | 0.865 | 1.31 | 1.07 | 0.846 | 1.25 | 1.25 | 0.292 | 0.277 | 0.26 | 0.283 | 0.272 |
| H3255 | 0.655 | 0.789 | 0.715 | 0.862 | 0.72 | 0.257 | 0.256 | 0.228 | 0.245 | 0.219 | 0.964 | 0.995 | 0.985 | 0.991 | 0.934 | 0.714 | 0.538 | 0.598 | 0.585 | 0.6 |
| HARA | 0.705 | 0.714 | 0.456 | 0.52 | 0.597 | 0.747 | 0.839 | 0.684 | 0.77 | 0.706 | 0.971 | 0.939 | 0.709 | 0.748 | 0.648 | 0.502 | 0.494 | 0.311 | 0.368 | 0.423 |
| HCC-15 | 0.91 | 0.849 | 0.845 | 0.816 | 0.788 | 0.93 | 0.984 | 0.944 | 0.833 | 0.846 | 0.957 | 0.932 | 0.678 | 0.787 | 0.772 | 0.792 | 0.806 | 0.631 | 0.621 | 0.632 |
| HCC-44 | 0.894 | 0.855 | 0.741 | 0.735 | 0.722 | 1.06 | 1.06 | 0.919 | 0.924 | 0.879 | 0.683 | 0.727 | 0.56 | 0.683 | 0.615 | 0.58 | 0.589 | 0.553 | 0.496 | 0.502 |
